Tests used:
[1] = tested on: patients and healthy volunteers; conditions: over 900 patients and healthy volunteers
From the text: GLA is a fully synthetic TLR4 agonist, which has been examined in over 900 patients and healthy volunteers as an adjuvant with NY-ESO-1 protein and with infectious agent antigens such as in flu vaccines. […] A higher Mug dose cohort is currently being examined in this Phase 1 trial.

HSV = conditions: continuous suppressive administration, early intervention; cited from earlier work

Structure (SMILES) | safety profile [1] | reduction of HSV transmission (HSV)
CCCCCCCCCCCCCC(=O)O[C@H](CCCCCCCCCCC)CC(=O)O[C@@H]1[C@@H](NC(=O)C[C@H](CCCCCCCCCCC)OC(=O)CCCCCCCCCCCCC)[C@H](OC[C@H]2O[C@H](O)[C@H](NC(=O)C[C@H](O)CCCCCCCCCCC)[C@@H](OC(=O)C[C@H](O)CCCCCCCCCCC)[C@@H]2O)O[C@H](CO)[C@H]1OP(=O)(O)O [GLA, glucopyranosyl lipid A] | established safety profile | –
CC(C)[C@H](N)C(=O)OCCOCn1cnc2c(=O)[nH]c(N)nc21 [Valacyclovir] | – | less than 50%

Source: US20170196954A1, “PRIME-BOOST REGIMENS WITH A TLR4 AGONIST ADJUVANT AND A LENTIVIRAL VECTOR” (priority 2014, published 2017)
